According to patent US8629132B2, “Kinase inhibitors” (Genosco, priority 2009, dated 2014):

Legend:
HEL cells = assay: Cell viability assay: JAK2 inhibition; assay type: cell-based, human
Description: Compounds of the invention are tested for their effects on JAK2 inhibition in human erythroleukemic cell line (HEL) to illustrate potential efficacy at the cellular level. The Janus-associated kinase (JAK) family, comprised of four different protein tyrosine kinases JAK1, JAK2, JAK3, and TYK2, plays an important role in cellular survival, proliferation, and differentiation. V617F, a unique mutation in the JAK2 gene (a valine-to-phenylalanine substitution) results in constitutive kinase activity and promotes deregulated hematopoiesis. JAK2 V617F is frequently detected in myeloproliferative disorders (MPDs), a group of clonal hematopoietic stem cell disorders that include polycythemia vera (PV), essential thrombocythemia (ET), and idiopathic myelofibrosis (IMF), all of which have the potential to transform to acute myeloid leukemia. JAK2 V617F is constitutively phosphorylated and able to activate downstream signaling in the absence of cytokine stimulation.
Compounds of the present invention were tested for their effects on viability of HEL cells. For cell viability assay, HEL cells expressing human JAK2 V617F were obtained from the American Type Culture Collection (ATCC, Manassas, Va.). This cell line was maintained with Roswell Park Memorial Institute (RPMI) medium (HyClone™) containing 10 bovine calf serum (BCS; Hyclone™) supplemented iron. The HEL cells were seeded at 2×10^4 cells in 96 well culture plates, and serially diluted compound was then added. After a 72-hour incubation period at 37° C., viability of cells was measured using the ATPLite 1 step assay (Perkin-Elmer™) that is based on the quantification of ATP from viable cells. CellTiter Aqueous assay (Promega™) was also performed in parallel as an orthogonal assay. IC50 values were calculated using nonlinear regression and defined as the concentration needed for a 50 reduction in luminescence or absorbance treated versus untreated control cells (Prism™ Software).

PYK2 = target: T1, PYK2 (Homo sapiens, UniProt Q14289); assay: Kinase inhibition assay: PYK2; assay type: biochemical; details: at 1 μM concentration
T1 construct: Purified full-length human SYK, ZAP70, PIM1, PYK2; purchased Carna Biosciences
T1 sequence (Q14289 whole entry): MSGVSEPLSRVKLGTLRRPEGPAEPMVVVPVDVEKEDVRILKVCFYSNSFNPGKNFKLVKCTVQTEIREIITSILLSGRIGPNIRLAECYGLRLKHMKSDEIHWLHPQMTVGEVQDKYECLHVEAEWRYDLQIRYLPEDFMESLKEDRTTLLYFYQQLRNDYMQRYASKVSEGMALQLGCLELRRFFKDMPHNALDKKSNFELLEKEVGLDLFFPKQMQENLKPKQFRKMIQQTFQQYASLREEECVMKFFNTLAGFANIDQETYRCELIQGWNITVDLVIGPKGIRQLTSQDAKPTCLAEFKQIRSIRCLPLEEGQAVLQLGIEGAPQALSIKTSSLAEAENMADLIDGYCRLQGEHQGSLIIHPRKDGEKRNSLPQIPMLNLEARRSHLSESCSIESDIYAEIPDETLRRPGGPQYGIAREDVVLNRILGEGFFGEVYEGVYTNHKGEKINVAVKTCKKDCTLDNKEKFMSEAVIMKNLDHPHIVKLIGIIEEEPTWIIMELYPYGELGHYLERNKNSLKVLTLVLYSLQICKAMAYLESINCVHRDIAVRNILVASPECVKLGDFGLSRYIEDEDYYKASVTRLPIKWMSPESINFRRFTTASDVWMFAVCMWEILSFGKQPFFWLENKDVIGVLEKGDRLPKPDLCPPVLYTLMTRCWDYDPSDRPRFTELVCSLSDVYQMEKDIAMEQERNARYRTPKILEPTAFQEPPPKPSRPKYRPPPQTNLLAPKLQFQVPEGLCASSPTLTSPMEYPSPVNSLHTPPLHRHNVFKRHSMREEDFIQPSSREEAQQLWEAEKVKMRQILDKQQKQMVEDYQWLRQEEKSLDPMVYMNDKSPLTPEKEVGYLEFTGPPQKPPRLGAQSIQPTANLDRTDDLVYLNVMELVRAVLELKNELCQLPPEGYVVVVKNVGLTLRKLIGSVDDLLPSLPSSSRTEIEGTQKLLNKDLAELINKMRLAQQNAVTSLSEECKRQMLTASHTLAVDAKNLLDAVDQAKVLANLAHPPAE
Description: (§1) Compounds of the present invention were tested for their capacity to inhibit a kinase panel which includes, but are not limited to, spleen tyrosine kinase (SYK), zeta-chain-associated protein kinase 70 (ZAP70), PTK2B protein tyrosine kinase 2 (PYK2), focal adhesion kinase (FAK), provirus integration of maloney kinase 1 (PIM1), rearranged during transfection kinase (RET), Fms-like tyrosine kinase 3 (FLT3), Janus kinase 2 (JAK2), and leucine-rich repeat kinase 2 (LRRK2).
(§2) Inhibition of SYK, ZAP70, PYK2, FAK, PIM1, RET, FLT3, JAK2 and LRRK2 Kinase Activity
Compounds of the invention were initially diluted to 10 mM in 100% DMSO (CALBIOCHEM™) for storage and made into kinase buffer solution to create a compound concentration ranging from 1 uM and 10 uM. Serial dilutions of compounds of the invention were dispensed into a 96-well plate (GREINER BIOSCIENCES™) at 6 μL each. Purified full-length human SYK, ZAP70, PIM1, PYK2 and truncated human FAK, RET, FLT3, JAK2, and LRRK2 (CARNA BIOSCIENCES™) were diluted in kinase buffer and added to the compound solutions and pre-incubated for 30 minutes at room temperature (1 hour for PYK2). […] The reaction mixture was incubated for 1 hour (2 hours for PYK2). Following the incubation, the stop solution made with EDTA, water, and Lance detection buffer ([…]™) was added (12μL each) to stop phosphorylation. […] The IC50 value of test compound was calculated at Gradpad Prism 5 unless specified otherwise.

PIM1 = target: T2, PIM1 (Homo sapiens, UniProt P11309); assay: Kinase inhibition assay: PIM1; assay type: biochemical; details: at 1 μM concentration
T2 construct: Purified full-length human SYK, ZAP70, PIM1, PYK2; purchased Carna Biosciences
T2 sequence (P11309 whole entry): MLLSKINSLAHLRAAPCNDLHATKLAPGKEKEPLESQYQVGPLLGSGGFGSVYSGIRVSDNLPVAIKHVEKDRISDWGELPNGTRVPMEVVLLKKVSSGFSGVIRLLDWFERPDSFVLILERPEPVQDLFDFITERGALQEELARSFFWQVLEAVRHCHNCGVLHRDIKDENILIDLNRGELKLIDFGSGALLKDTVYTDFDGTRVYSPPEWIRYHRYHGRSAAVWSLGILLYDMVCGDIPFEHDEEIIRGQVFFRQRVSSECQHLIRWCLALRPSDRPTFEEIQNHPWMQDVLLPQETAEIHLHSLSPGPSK
Description: as §1, §2
Compounds of the invention were initially diluted to 10 mM in 100% DMSO (CALBIOCHEM™) for storage and made into kinase buffer solution to create a compound concentration ranging from 1 uM and 10 uM. Serial dilutions of compounds of the invention were dispensed into a 96-well plate (GREINER BIOSCIENCES™) at 6 μL each. Purified full-length human SYK, ZAP70, PIM1, PYK2 and truncated human FAK, RET, FLT3, JAK2, and LRRK2 (CARNA BIOSCIENCES™) were diluted in kinase buffer and added to the compound solutions and pre-incubated for 30 minutes at room temperature (1 hour for PYK2). […] The reaction mixture was incubated for 1 hour (2 hours for PYK2). Following the incubation, the stop solution made with EDTA, water, and Lance detection buffer ([…]™) was added (12μL each) to stop phosphorylation. […] Substrate phosphorylation was a function of the 665 nm emission measured following the addition of the detection solution and 50 minutes of incubation. The IC50 value of test compound was calculated at Gradpad Prism 5 unless specified otherwise.

JAK2 = JAK2 (Homo sapiens, UniProt O60674); assay: In vitro kinase inhibition profile (Ambit Biosciences); assay type: binding; parameters: JAK2(JH1domain-catalytic); purchased Ambit Biosciences; details: reported as percent control, lower numbers indicate stronger activities
JAK2, sequence (O60674 849-1124 limits assumed): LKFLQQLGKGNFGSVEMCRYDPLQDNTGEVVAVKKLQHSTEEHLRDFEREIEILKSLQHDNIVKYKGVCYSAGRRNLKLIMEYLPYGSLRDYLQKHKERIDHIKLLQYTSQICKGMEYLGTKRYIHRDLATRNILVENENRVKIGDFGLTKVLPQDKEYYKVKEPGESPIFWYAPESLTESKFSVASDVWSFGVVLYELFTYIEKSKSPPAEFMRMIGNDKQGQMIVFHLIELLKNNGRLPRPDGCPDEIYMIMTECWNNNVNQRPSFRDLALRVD
Description: Up to 518 different kinases have been identified in humans. To determine the scope of inhibitory effects of a representative compound of Formula (I) on known kinases, Compound 82 was tested against 104 commercially available kinases (Ambit Biosciences™). 104 kinases included ABL1(E255K)-phosphorylated, ABL1(T315I)-phosphorylated, ABL1-phosphorylated, ACVR1B, ADCK3, AKT1, AKT2, ALK, AURKA, AURKB, AXL, BMPR2, BRAF, BRAF(V600E), BTK, CDK11, CDK2, CDK3, CDK7, CDK9, CHEK1, CSF1R, CSNK1D, CSNK1G2, DCAMKL1, DYRK1B, EGFR, EGFR(L858R), EPHA2, ERBB2, ERBB4, ERK1, FAK, FGFR2, FGFR3, FLT1, FLT3, FLT4, GSK3B, IGF1R, IKK-α, IKK-β, INSR, JAK2(JH1domain-catalytic), JAK3 (JH1 domain-catalytic), JNK 1, JNK2, JNK3, KIT, KIT(D816V), KIT(V559D,T6701), LKB1, LRRK2, LRRK2(G2019S), MAP3K4, MAPKAPK2, MARKS, MEK1, MEK2, MET, MKNK1, MKNK2, MLK1, MTOR, p38-alpha, p38-beta, PAK1, PAK2, PAK-4, PCTK1, PDGFRA, PDGFRB, PDPK1, PIK3C2B, PIK3CA, PIK3CG, PIM1, PIM2, PIM3, PKAC-alpha, PLK1, PLK3, PLK4, PRKCE, PYK2, RAF1, RET, R10K2, ROCK2, RSK2, SNARK, SRC, SRPK3, SYK, TAK1, TGFBR1, TIE2, TRKA, TSSK1B, TYK2(JH1domain-catalytic), ULK2, VEGFR2, YANK3 and ZAP70.
Inhibition activity of Compound 82 was reported as percent control where lower numbers indicate stronger activities.

Row | inhibition at 1 µM (PYK2) | inhibition at 1 µM (PIM1) | % of control (JAK2) | SMILES | inhibition level compared with Sorafenib (HEL cells; HEL) | IC50 (HEL cells; Homo sapiens, 72-hour incubation, HEL cells expressing JAK2 V617F, read-out: Cell Viability: JAK2 kinase Inhibition HEL (IC50 nM))
1 | 78.2% | 71.2% | – | COc1cc(Nc2ncc(C)c(-n3cc(C)c(CO)c3)n2)cc(OC)c1OC [Compound 21, (4-methyl-1-(5-methyl-2-(3,4,5-trimethoxyphenylamino)pyrimidin-4-yl)-1H-pyrrol-3-yl)methanol] | greater than those exhibited by Sorafenib | 144 nM
2 | – | – | 3% | Cc1cc(C)cc(Nc2ncc(F)c(-n3cc(C)c(CN4CC[C@@H](O)C4)c3)n2)c1 [Compound 82, (R)-1-((1-(2-(3,5-dimethylphenyl-amino)-5-fluoropyrimidin-4-yl)-4-methyl-1H-pyrrol-3-yl)methyl) pyrrolidin-3-ol] | – | –
